Our source for the IC50 and EC50 values is patent publication US10501479B2, “Benzenesulfonyl-asymmetric ureas and medical uses thereof” (HELSINN HEALTHCARE SA, priority 2016, dated 2019).

What all share (type): cell-based
The target in assay [1] is T1, GHSR-1a (HEK293/GHSR1a cell line) (Homo sapiens, UniProt Q92847).
T1 construct: expressed in transfected cells; host or cells: HEK293/GHSR1a cell line
The assay is described as follows: Ghrelin antagonist potency (IC50) with calcium FLIPR assay, ghrelin 10 nM. The gist of the method:
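Cells seeded 24 h before the run were loaded with calcium dye for 30-60 min at room temperature or 37° C. For agonism, compound was added at t=20 sec and the calcium signal followed for 2 minutes. For antagonism, compound plus ghrelin (10 nM) went on at t=20 sec, and IC50 reflected the drop in ghrelin response.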

For assay [2], the target named is T2, recombinant human ghrelin receptor (HEK293/GRLN) (Homo sapiens, UniProt Q92847).
T2 construct: expressed in transfected cells
The assay is described as follows: Ghrelin inverse agonist potency (EC50) with IP-1 (IP-One HTRF) assay. Conditions: IP-1 assay. Summed up:
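HEK293/GRLN cells were seeded 18-22 hours before the test, then exposed to compound in stimulation buffer for 1 hour at 37° C, 5% CO2. IP-1 was detected by IP-One HTRF (IP1-d2 plus Tb-cryptate, 1 hour RT), reading 620 and 665 nm; the inverse agonist EC50 was derived from this.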
In general terms: TR-FRET usually uses a lanthanide donor and a delayed reading to cut background.

Assay [3] deals with T1, GHSR-1a (HEK293/GHSR1a cell line). Briefly: Ghrelin agonist potency (EC50) with calcium FLIPR assay. Conditions: HEK293/GHSR1a, read-out: Activity EC50/EMax: EC50 (ghrelin agonist potency). The method, then:
Evaluation of Ghrelin Agonist (EC50) and Antagonist Potency (IC50) with Calcium FLIPR Assay:
The intracellular calcium assay was carried out in a 384-well format FLIPR™ (Molecular Device) HEK293/GHSR1a cell line. Cells were seeded 24 hr prior to the experiments at an optimal density per well. Preincubation with selected calcium dye lasted for 30-60 min at room temperature or 37° C. Test compounds, dissolved in DMSO, were added at the appropriate time and incubated for 15 min followed by the addition of ghrelin with FlexStation or FLIPR. Relative fluorescence was monitored by the FLIPR™ Molecular Device. EC50 and IC50 values were estimated from dose-response data using GraphPad Prism software. To check for GHSR-1a agonism, the compound was added at t=20 sec. and the calcium response was followed for 2 minutes. To check for GHSR-1a antagonism, the compound and Ghrelin (10 nM) were added to the cells at t=20 sec. and the calcium response was measured for 2 minutes. The potency of the antagonist was calculated by its ability to reduce the ghrelin response. Dose-response curves were made for relevant antagonists.

[4] abbreviates: ghrelin antagonist potency, read-out: IC50 (Activity).
Where [5] appears, read: inverse agonist potency, read-out: EC50 (Activity).
Where [6] appears, read: HEK293/GHSR1a, ghrelin 10 nM, read-out: Activity IC50 (ghrelin antagonist potency).
Setting [7] is: ghrelin antagonist potency, read-out: Activity IC50.
[8] abbreviates: ghrelin inverse agonist potency, read-out: Activity EC50.

Like-named read-outs stand apart in the source and are kept apart here.

The term IC50 denotes the midpoint of a concentration-inhibition curve.

T2 sequence (Q92847 whole entry): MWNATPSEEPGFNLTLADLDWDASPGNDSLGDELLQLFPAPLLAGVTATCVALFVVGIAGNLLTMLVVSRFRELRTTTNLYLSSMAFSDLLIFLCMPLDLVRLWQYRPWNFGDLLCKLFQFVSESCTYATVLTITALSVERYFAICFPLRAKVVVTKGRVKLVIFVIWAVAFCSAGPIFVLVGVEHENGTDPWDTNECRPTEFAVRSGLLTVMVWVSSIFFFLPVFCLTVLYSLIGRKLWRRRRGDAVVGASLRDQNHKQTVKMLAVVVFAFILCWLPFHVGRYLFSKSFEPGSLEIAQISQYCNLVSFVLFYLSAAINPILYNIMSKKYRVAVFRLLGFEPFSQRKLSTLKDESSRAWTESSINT
T1 sequence (Q92847 whole entry): as above

As for `CC(NC(=O)Nc1ccc(S(=O)(=O)C(C)c2ccc3c(c2)CN(Cc2ccccc2)C3)cc1)c1ccccc1` (stereo not drawn) [H1233, 1-(4-((1-(2-benzylisoindolin-5-yl)ethyl)sulfonyl)phenyl)-3-(1-phenylethyl)urea], the IC50 in assay [1] (setting [4]) is 0.225 µM. Also, the EC50 in assay [2] (setting [5]) turned out to be 0.17 µM.
In the case of `CC(C)CNC(=O)Nc1ccc(S(=O)(=O)Cc2ccc3c(c2)CN(C)C3)cc1` [H1236, 1-isobutyl-3-(4-(((2-methylisoindolin-5-yl)methyl)sulfonyl)phenyl)urea], in assay [1] (setting [4]), the IC50 was 1.64 µM. Besides, the EC50 in assay [2] (setting [5]) is 0.507 µM.
Take `CC(NC(=O)Nc1ccc(S(=O)(=O)Cc2ccc3c(c2)CN(C)C3)cc1)C1CC1` (stereo not drawn) [H1244, 1-(1-cyclopropylethyl)-3-(4-(((2-methylisoindolin-5-yl)methyl)sulfonyl)phenyl)urea]: the IC50 in assay [1] (setting [4]) worked out at 1.28 µM. In addition, the EC50 in assay [2] (setting [5]) worked out at 0.356 µM.
For `O=C(NC(=O)c1cc(N2CCOCC2)ccc1Cl)Nc1ccc(S(=O)(=O)Cc2ccc3c(c2)CNC3)cc1` [H1249, 2-chloro-N-((4-((isoindolin-5-ylmethyl)sulfonyl)phenyl)carbamoyl)-5-morpholinobenzamide], the IC50 in assay [1] (setting [4]) was 3.29 µM. Moreover, the EC50 in assay [2] (setting [5]) worked out at 1.63 µM.
On to `CCc1ccc(Cl)c(C(=O)NC(=O)Nc2ccc(S(=O)(=O)Cc3ccc(CO)cc3)cc2)c1` [H1255, 2-chloro-5-ethyl-N-((4-((4-(hydroxymethyl)benzyl)sulfonyl)phenyl)carbamoyl)benzamide], for which, in assay [1] (setting [6]), the IC50 worked out at 2.33 µM. The EC50 in assay [3] is > 30 µM.
`CCc1ccc(Cl)c(C(=O)NC(=O)Nc2ccc(S(=O)(=O)Nc3ccc4c(c3)CNC4)cc2)c1` [H1259, 2-chloro-5-ethyl-N-((4-(N-(isoindolin-5-yl)sulfamoyl)phenyl)carbamoyl) benzamide]: the IC50 in assay [1] (setting [6]) came out at 0.272 µM. The EC50 in assay [3] is > 30 µM.
Turning to `CC(NC(=O)Nc1ccc(S(=O)(=O)N2CC3CNCC3C2)cc1)c1ccccc1` (stereo not drawn) [H1277, 1-(4-((hexahydropyrrolo[3,4-c]pyrrol-2(1H)-yl)sulfonyl)phenyl)-3-(1-phenylethyl)urea], in assay [1] (setting [6]), the IC50 was 8.76 µM. Also, the EC50 in assay [3] was > 30 µM.
Consider `CC(NC(=O)Nc1ccc(S(=O)(=O)Cc2ccncc2)cc1)c1ccccc1` (stereo not drawn) [H1280, 1-(1-phenylethyl)-3-(4-((pyridin-4-ylmethyl)sulfonyl)phenyl)urea], for which the 50% inhibitory concentration (IC50) in assay [1] (setting [6]) was 0.905 µM. Further, the EC50 in assay [3] is > 30 µM.
In the same order, the values of `C[C@H](NC(=O)Nc1ccc2c(c1)CC(c1ccc3c(c1)CN(C)C3)S2(=O)=O)c1ccccc1` (stereo partly drawn) [H1285, 1-(2-(2-methylisoindolin-5-yl)-1,1-dioxido-2,3-dihydrobenzo[b]thiophen-5-yl)-3-((S)-1-phenylethyl)urea] are 0.065 µM and 0.147 µM.
On the same counts, the results for `CC(NC(=O)Nc1ccc(S(=O)(=O)Cc2ccc3c(c2)CNC3=O)cc1)c1ccccc1` (stereo not drawn) [H1292, 1-(4-(((1-oxoisoindolin-5-yl)methyl)sulfonyl)phenyl)-3-(1-phenylethyl)urea] are > 30 µM and > 30 µM.
`CC(NC(=O)Nc1ccc(S(=O)(=O)Cc2ccc3c(c2)C(N2CCCC2)CC3)cc1)c1ccccc1` (stereo not drawn) [H1294, 1-(1-phenylethyl)-3-(4-(((3-(pyrrolidin-1-yl)-2,3-dihydro-1H-inden-5-yl)methyl)sulfonyl)phenyl)urea]: the IC50 in assay [1] (setting [6]) amounted to 3.32 µM. The EC50 in assay [3] worked out at 12.9 µM.
On the same counts, the results for `C[C@H](NC(=O)Nc1ccc(S(=O)(=O)Cc2ccc(CN3CCC(O)C3)cc2)cc1)c1ccccc1` (stereo partly drawn) [H1313, 1-(4-((4-((3-hydroxypyrrolidin-1-yl)methyl)benzyl)sulfonyl)phenyl)-3-((S)-1-phenylethyl)urea] are 1.46 µM and > 30 µM.
In the same order, the values of `C[C@H](NC(=O)Nc1ccc(S(=O)(=O)Cc2ccc(CN3CCC(CO)C3)cc2)cc1)c1ccccc1` (stereo partly drawn) [H1314, 1-(4-((4-((3-(hydroxymethyl)pyrrolidin-1-yl)methyl)benzyl)sulfonyl)phenyl)-3-((S)-1-phenylethyl)urea] are 3.1 µM and > 30 µM.
Turning to `C[C@H](NC(=O)Nc1ccc(S(=O)(=O)Nc2ccc3c(c2)CCN(C)C3)cc1)c1ccccc1` [H1315, (S)-N-(2-methyl-1,2,3,4-tetrahydroisoquinolin-6-yl)-4-(3-(1-phenylethyl)ureido) benzenesulfonamide], the IC50 in assay [1] (setting [6]) was 0.301 µM. The EC50 in assay [3] is > 30 µM.
On the same counts, the results for `CC(NC(=O)Nc1ccc(S(=O)(=O)Cc2cccc(CN3CCCC3)c2)cc1)c1ccccc1` (stereo not drawn) [H1318, 1-(1-phenylethyl)-3-(4-((3-(pyrrolidin-1-ylmethyl)benzyl)sulfonyl)phenyl)urea] are 5.31 µM and > 30 µM.
In the same order, the values of `C[C@H](NC(=O)Nc1ccc(S(=O)(=O)Cc2ccc3c(c2)C2CCC3N2)cc1)c1ccccc1` (stereo partly drawn) [H1324, 1-((S)-1-phenylethyl)-3-(4-(((1,2,3,4-tetrahydro-1,4-epiminonaphthalen-6-yl)methyl)sulfonyl)phenyl)urea] are 10.5 µM and > 30 µM.
For `C[C@H](NC(=O)Nc1ccc(S(=O)(=O)Cc2ccc3c(c2)C2CCC3N2C)cc1)c1ccccc1` (stereo partly drawn) [H1325, 1-(4-(((9-methyl-1,2,3,4-tetrahydro-1,4-epiminonaphthalen-6-yl)methyl)sulfonyl)phenyl)-3-((S)-1-phenylethyl)urea], the IC50 in assay [1] (setting [6]) came to 3.83 µM. Moreover, the EC50 in assay [3] was > 30 µM.
`C[C@H](NC(=O)Nc1ccc(S(=O)(=O)Cc2ccc(C3CCCN3)cc2)cc1)c1ccccc1` (stereo partly drawn) [H1328, 1-((S)-1-phenylethyl)-3-(4-((4-(pyrrolidin-2-yl)benzyl)sulfonyl)phenyl)urea]: in assay [1] (setting [6]), the IC50 came to 0.546 µM. Further, the EC50 in assay [3] is > 30 µM.
In the same order, the values of `CC(NC(=O)Nc1ccc(S(=O)(=O)Cc2ccc3nn(C)cc3c2)cc1)c1ccccc1` (stereo not drawn) [H1329, 1-(4-(((2-methyl-2H-indazol-5-yl)methyl)sulfonyl)phenyl)-3-(1-phenylethyl)urea] are > 30 µM and > 30 µM.
In the case of `CCN(CC)c1ccc(CS(=O)(=O)c2ccc(NC(=O)NC(C)c3cccc(Cl)c3Cl)cc2)cc1` (stereo not drawn) [H1360, 1-(1-(2,3-dichlorophenyl)ethyl)-3-(4-((4-(diethylamino)benzyl)sulfonyl)phenyl)urea], in assay [1] (setting [6]), the IC50 is > 30 µM. In assay [3], the EC50 was > 30 µM.
As for `CCN(CC)CCCS(=O)(=O)c1ccc(NC(=O)NC(C)c2cccc(Cl)c2Cl)cc1` (stereo not drawn) [H1361, 1-(1-(2,3-dichlorophenyl)ethyl)-3-(4-((3-(diethylamino)propyl)sulfonyl)phenyl)urea], the IC50 in assay [1] (setting [6]) amounted to 1.61 µM. Further, the EC50 in assay [3] was > 30 µM.
As for `COc1ccc(C(C)NC(=O)Nc2ccc(S(=O)(=O)Cc3ccc4c(c3)CNC4)cc2)cc1Cl` (stereo not drawn) [H1477, 1-(1-(3-chloro-4-methoxyphenyl)ethyl)-3-(4-((isoindolin-5-ylmethyl)sulfonyl)phenyl)urea], the IC50 in assay [1] (setting [7]) was determined as 0.0369 µM. The EC50 in assay [2] (setting [8]) turned out to be 0.0174 µM.
On to `CC(c1ccccc1)N(O)C(=O)Nc1ccc(S(=O)(=O)Cc2ccc3c(c2)CNC3)cc1` (stereo not drawn) [H1526, 1-hydroxy-3-(4-((isoindolin-5-ylmethyl)sulfonyl)phenyl)-1-(1-phenylethyl)urea], for which the IC50 in assay [1] (setting [7]) stood at 0.0319 µM. Besides, in assay [2] (setting [8]), the EC50 is 0.0219 µM.
Turning to `CC(c1ccccc1)N(O)C(=O)Nc1ccc(S(=O)(=O)Cc2ccc3c(c2)CN(C)C3)cc1` (stereo not drawn) [H1527, 1-hydroxy-3-(4-(((2-methylisoindolin-5-yl)methyl)sulfonyl)phenyl)-1-(1-phenylethyl)urea], the IC50 in assay [1] (setting [7]) was found to be 0.13 µM. In assay [2] (setting [8]), the EC50 was determined as 0.034 µM.
